Measurements from US20160346249A1 (priority 2012, published 2016).
Where “and” joins values, the source holds several entries; their conditions need not be identical. Identical values can stand only once.

Experiment: Single rising oral dose (10-150 mg IR) safety, tolerance and pharmacokinetics in healthy male volunteers
Format: in vivo, human
From the text: Fifty (50) healthy male adult volunteers, between the ages of 19 and 43 years (mean±SD: 28±6 years) were enrolled in the study and randomized to the […] different treatments. […] The subjects were divided into panels of 10 subjects/dose group. Seven subjects in each group received the test drug, while three received an identical-looking placebo. […] The five treatments are outlined below:
The subjects were admitted to the clinic the night before dose administration and fasted from approximately 10 hour before to 4 hour after ingestion of the study capsules. Treatments were administered with 240 mL of mineral water between 08:00 and 09:00 hours. […] The assay calibration range was 5 to 2,000 ng/mL.
The values of Cmax and Tmax were the observed value for each subject. The terminal elimination rate constant λz was derived from the log-linear disposition phase of the concentration-time curve using linear least-squares regression for which the program determined the appropriate number of terminal points to calculate λz. At least three terminal plasma concentrations were used for estimating λz. The t1/2 (HL_Lambda_z) was calculated as ln 2/λz. AUC0-t and AUMC0-t were determined using the linear trapezoidal rule for each increasing concentration and the log-trapezoidal rule for descending concentrations. The AUC values from the last quantifiable time point to infinity was calculated as Ct/λz. This value was added to AUC0-t to obtain AUC0-∞. […] Oral clearance was calculated as Dose/AUC0-∞. The 90% confidence intervals were calculated for all of the variables.
SAS, version 8.2, was used for the analysis.

[1] = 10 mg, individual subject, listed as DOV 21,947
[2] = 25 mg, individual subject, listed as DOV 21,947
[3] = 50 mg, individual subject, listed as DOV 21,947
[4] = 100 mg, individual subject, listed as DOV 21,947
[5] = 150 mg, individual subject, listed as DOV 21,947

Clc1ccc([C@]23CNC[C@H]2C3)cc1Cl [amitifadine, (+)-1-(3,4-dichlorophenyl)-3-azabicyclo[3.1.0]hexane]
λ2 (10 mg, Geometric Mean): 0.204 h⁻¹ | AUC0-∞ (10 mg, Maximum): 551 ng·h/mL | AUC(0-t) (10 mg, Maximum): 492 ng·h/mL | MRT0-∞ (10 mg, Maximum): 6.09 h | t1/2 (10 mg, Maximum): 3.90 h | λ2 (10 mg, Maximum): 0.233 h⁻¹ | λz (10 mg, Mean (n = 7)): 0.205 h⁻¹ | λ2 (10 mg, Median): 0.200 h⁻¹ | AUC0-∞ (10 mg, Minimum): 257 ng·h/mL | AUC(0-t) (10 mg, Minimum): 227 ng·h/mL | MRT0-∞ (10 mg, Minimum): 4.72 h | t1/2 (10 mg, Minimum): 2.98 h | λ2 (10 mg, Minimum): 0.178 h⁻¹ | MRT0-∞ [1]: 5.47 h and 4.72 h and 6.09 h and 4.84 h | t1/2 [1]: 3.63 h and 3.90 h and 3.09 h and 2.98 h and 3.79 h and 3.08 h | λ2 [1]: 0.200 hr^−1 and 0.191 hr^−1 and 0.178 hr^−1 and 0.225 hr^−1 (2×) and 0.233 hr^−1 and 0.183 hr^−1 | λ2 (25 mg, Geometric Mean): 0.234 h⁻¹ | AUC0-∞ (25 mg, Maximum): 2350 ng·h/mL | AUC(0-t) (25 mg, Maximum): 2220 ng·h/mL | MRT0-∞ (25 mg, Maximum): 6.46 h | t1/2 (25 mg, Maximum): 5.25 h | λ2 (25 mg, Maximum): 0.493 h⁻¹ | λz (25 mg, Mean (n = 7)): 0.251 h⁻¹ | AUC(0-t) (25 mg, Mean (n = 7), listed as DOV 21,947): 1380 ng·h/mL | λ2 (25 mg, Median): 0.231 h⁻¹ | AUC0-∞ (25 mg, Minimum): 1080 ng·h/mL | AUC(0-t) (25 mg, Minimum): 995 ng·h/mL | MRT0-∞ (25 mg, Minimum): 4.26 h | t1/2 (25 mg, Minimum): 1.41 h | λ2 (25 mg, Minimum): 0.132 h⁻¹ | MRT0-∞ [2]: 4.26 h and 6.46 h and 4.98 h and 4.29 h and 4.39 h | λ2 [2]: 0.222 hr^−1 and 0.231 hr^−1 (2×) and 0.132 hr^−1 and 0.191 hr^−1 and 0.258 hr^−1 and 0.493 hr^−1 | λ2 (50 mg, Geometric Mean): 0.190 h⁻¹ | AUC0-∞ (50 mg, Maximum): 3270 ng·h/mL | AUC(0-t) (50 mg, Maximum): 3220 ng·h/mL | MRT0-∞ (50 mg, Maximum): 5.66 h | t1/2 (50 mg, Maximum): 4.39 h | λ2 (50 mg, Maximum): 0.245 h⁻¹ | λz (50 mg, Mean (n = 7)): 0.192 h⁻¹ | λ2 (50 mg, Median): 0.191 h⁻¹ | AUC0-∞ (50 mg, Minimum): 1690 ng·h/mL | AUC(0-t) (50 mg, Minimum): 1530 ng·h/mL | MRT0-∞ (50 mg, Minimum): 4.38 h | t1/2 (50 mg, Minimum): 2.62 h | λ2 (50 mg, Minimum): 0.158 h⁻¹ | MRT0-∞ [3]: 4.38 h and 5.43 h and 5.22 h and 5.60 h and 5.66 h | λ2 [3]: 0.213 h⁻¹ and 0.245 h⁻¹ and 0.199 h⁻¹ and 0.158 h⁻¹ and 0.191 h⁻¹ and 0.167 h⁻¹ and 0.170 h⁻¹ | λ2 (100 mg, Geometric Mean): 0.167 h⁻¹ | AUC0-∞ (100 mg, Maximum): 5960 ng·h/mL | AUC(0-t) (100 mg, Maximum): 5900 ng·h/mL | MRT0-∞ (100 mg, Maximum): 7.03 h | t1/2 (100 mg, Maximum): 4.35 h | λ2 (100 mg, Maximum): 0.177 h⁻¹ | λz (100 mg, Mean (n = 7)): 0.167 h⁻¹ | λ2 (100 mg, Median): 0.164 h⁻¹ | AUC0-∞ (100 mg, Minimum): 4030 ng·h/mL | AUC(0-t) (100 mg, Minimum): 3960 ng·h/mL | MRT0-∞ (100 mg, Minimum): 4.85 h | t1/2 (100 mg, Minimum): 3.92 h | λ2 (100 mg, Minimum): 0.159 h⁻¹ | MRT0-∞ [4]: 7.03 h and 5.71 h and 5.63 h and 4.85 h | λ2 [4]: 0.176 hr^−1 and 0.162 hr^−1 and 0.173 hr^−1 and 0.159 hr^−1 (2×) and 0.164 hr^−1 and 0.177 hr^−1 | λ2 (150 mg, Geometric Mean): 0.191 h⁻¹ | AUC0-∞ (150 mg, Maximum): 11100 ng·h/mL | AUC(0-t) (150 mg, Maximum): 10900 ng·h/mL | MRT0-∞ (150 mg, Maximum): 7.14 h | t1/2 (150 mg, Maximum): 4.87 h | λ2 (150 mg, Maximum): 0.288 h⁻¹ | λz (150 mg, Mean (n = 7)): 0.195 h⁻¹ | t1/2 (150 mg, Mean (n = 7), listed as DOV 21,947): 3.91 h | λ2 (150 mg, Median): 0.189 h⁻¹ | AUC0-∞ (150 mg, Minimum): 6590 ng·h/mL | AUC(0-t) (150 mg, Minimum): 6390 ng·h/mL | MRT0-∞ (150 mg, Minimum): 4.66 h | t1/2 (150 mg, Minimum): 2.41 h | λ2 (150 mg, Minimum): 0.142 h⁻¹ | MRT0-∞ [5]: 7.03 h and 6.70 h and 4.66 h and 7.14 h | λ2 [5]: 0.177 h⁻¹ and 0.142 h⁻¹ and 0.189 h⁻¹ and 0.288 h⁻¹ and 0.200 h⁻¹ and 0.159 h⁻¹ and 0.209 h⁻¹ | variability of Cmax and AUC (all doses): ≤ 30% | MRT inf (human, plasma, oral, 10 mg, individual subject, read-out: MRT0-∞): 5.36 h
